Columns and labels:
Assay in all cases: KINOMEscan competition binding
Details in all cases: compound 10.0 µM
[1] = system: ABL1 (human), P00519 [M351T]
[2] = molecular target: ACVR1B (human) (UniProt P36896)
[3] = molecular target: AURKC (human) (UniProt Q9UQB9)
[4] = molecular target: BMP2K (human) (UniProt Q9NSY1)
[5] = molecular target: CDK11B (human) (UniProt P21127)
[6] = molecular target: CDK17 (human) (UniProt Q00537)
[7] = molecular target: CDK3 (human) (UniProt Q00526)
[8] = molecular target: CLK1 (human) (UniProt P49759)
[9] = molecular target: CLK2 (human) (UniProt P49760)
[10] = molecular target: CLK4 (human) (UniProt Q9HAZ1)
[11] = molecular target: CSNK1A1 (human) (UniProt P48729)
[12] = molecular target: CSNK1D (human) (UniProt P48730)
Chain of CSNK1D (human) (P48730 whole entry, looked up): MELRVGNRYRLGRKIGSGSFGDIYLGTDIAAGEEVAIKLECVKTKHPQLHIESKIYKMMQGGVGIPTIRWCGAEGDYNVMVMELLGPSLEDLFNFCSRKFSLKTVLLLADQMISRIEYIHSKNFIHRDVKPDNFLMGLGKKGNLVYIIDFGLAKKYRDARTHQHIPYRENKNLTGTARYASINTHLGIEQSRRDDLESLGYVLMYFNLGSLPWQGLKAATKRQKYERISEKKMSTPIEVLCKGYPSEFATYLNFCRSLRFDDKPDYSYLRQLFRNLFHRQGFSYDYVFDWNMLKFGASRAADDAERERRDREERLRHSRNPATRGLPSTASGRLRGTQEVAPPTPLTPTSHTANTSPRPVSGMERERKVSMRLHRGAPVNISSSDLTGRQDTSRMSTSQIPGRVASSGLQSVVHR

[13] = molecular target: DAPK2 (human) (UniProt Q9UIK4)
[14] = molecular target: DAPK3 (human) (UniProt O43293)
[15] = molecular target: DCLK2 (human) (UniProt Q8N568)
[16] = molecular target: DMPK (human) (UniProt Q09013)
[17] = system: EGFR (human), P00533 [747-751 del / S ins]
[18] = molecular target: EPHA8 (human) (UniProt P29322)
[19] = molecular target: GRK4 (human) (UniProt P32298)
[20] = molecular target: HCK (human) (UniProt P08631)
Chain of HCK (human) (P08631 whole entry, looked up): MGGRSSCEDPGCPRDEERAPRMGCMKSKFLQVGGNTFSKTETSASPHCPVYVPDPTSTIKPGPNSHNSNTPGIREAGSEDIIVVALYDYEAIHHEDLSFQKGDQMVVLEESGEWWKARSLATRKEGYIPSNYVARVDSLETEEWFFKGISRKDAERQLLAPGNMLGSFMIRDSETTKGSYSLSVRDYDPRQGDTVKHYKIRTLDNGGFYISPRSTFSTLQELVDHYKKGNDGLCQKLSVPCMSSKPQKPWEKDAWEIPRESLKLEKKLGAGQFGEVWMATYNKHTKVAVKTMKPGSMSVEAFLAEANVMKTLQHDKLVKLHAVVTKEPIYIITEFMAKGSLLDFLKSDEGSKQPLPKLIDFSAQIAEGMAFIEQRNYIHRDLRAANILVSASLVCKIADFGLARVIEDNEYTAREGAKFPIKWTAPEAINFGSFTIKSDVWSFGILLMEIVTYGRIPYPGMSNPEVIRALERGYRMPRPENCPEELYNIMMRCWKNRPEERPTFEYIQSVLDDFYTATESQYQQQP

[21] = molecular target: JAK1 JH1 catalytic (human) (UniProt P23458)
[22] = system: LRRK2 (human), Q5S007 [G2019S]
[23] = molecular target: MAP2K3 (human) (UniProt P46734)
Chain of MAP2K3 (human) (P46734 whole entry, looked up): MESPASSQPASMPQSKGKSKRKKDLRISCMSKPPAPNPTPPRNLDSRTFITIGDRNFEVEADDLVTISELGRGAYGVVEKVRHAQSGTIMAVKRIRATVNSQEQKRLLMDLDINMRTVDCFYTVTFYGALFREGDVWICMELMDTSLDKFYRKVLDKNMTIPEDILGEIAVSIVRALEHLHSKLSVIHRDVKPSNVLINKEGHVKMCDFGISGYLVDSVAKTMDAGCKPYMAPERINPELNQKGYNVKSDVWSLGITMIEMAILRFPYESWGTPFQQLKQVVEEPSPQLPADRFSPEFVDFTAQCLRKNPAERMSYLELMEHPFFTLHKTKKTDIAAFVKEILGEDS

[24] = molecular target: MAP3K4 (human) (UniProt Q9Y6R4)
Chain of MAP3K4 (human) (Q9Y6R4 whole entry, looked up): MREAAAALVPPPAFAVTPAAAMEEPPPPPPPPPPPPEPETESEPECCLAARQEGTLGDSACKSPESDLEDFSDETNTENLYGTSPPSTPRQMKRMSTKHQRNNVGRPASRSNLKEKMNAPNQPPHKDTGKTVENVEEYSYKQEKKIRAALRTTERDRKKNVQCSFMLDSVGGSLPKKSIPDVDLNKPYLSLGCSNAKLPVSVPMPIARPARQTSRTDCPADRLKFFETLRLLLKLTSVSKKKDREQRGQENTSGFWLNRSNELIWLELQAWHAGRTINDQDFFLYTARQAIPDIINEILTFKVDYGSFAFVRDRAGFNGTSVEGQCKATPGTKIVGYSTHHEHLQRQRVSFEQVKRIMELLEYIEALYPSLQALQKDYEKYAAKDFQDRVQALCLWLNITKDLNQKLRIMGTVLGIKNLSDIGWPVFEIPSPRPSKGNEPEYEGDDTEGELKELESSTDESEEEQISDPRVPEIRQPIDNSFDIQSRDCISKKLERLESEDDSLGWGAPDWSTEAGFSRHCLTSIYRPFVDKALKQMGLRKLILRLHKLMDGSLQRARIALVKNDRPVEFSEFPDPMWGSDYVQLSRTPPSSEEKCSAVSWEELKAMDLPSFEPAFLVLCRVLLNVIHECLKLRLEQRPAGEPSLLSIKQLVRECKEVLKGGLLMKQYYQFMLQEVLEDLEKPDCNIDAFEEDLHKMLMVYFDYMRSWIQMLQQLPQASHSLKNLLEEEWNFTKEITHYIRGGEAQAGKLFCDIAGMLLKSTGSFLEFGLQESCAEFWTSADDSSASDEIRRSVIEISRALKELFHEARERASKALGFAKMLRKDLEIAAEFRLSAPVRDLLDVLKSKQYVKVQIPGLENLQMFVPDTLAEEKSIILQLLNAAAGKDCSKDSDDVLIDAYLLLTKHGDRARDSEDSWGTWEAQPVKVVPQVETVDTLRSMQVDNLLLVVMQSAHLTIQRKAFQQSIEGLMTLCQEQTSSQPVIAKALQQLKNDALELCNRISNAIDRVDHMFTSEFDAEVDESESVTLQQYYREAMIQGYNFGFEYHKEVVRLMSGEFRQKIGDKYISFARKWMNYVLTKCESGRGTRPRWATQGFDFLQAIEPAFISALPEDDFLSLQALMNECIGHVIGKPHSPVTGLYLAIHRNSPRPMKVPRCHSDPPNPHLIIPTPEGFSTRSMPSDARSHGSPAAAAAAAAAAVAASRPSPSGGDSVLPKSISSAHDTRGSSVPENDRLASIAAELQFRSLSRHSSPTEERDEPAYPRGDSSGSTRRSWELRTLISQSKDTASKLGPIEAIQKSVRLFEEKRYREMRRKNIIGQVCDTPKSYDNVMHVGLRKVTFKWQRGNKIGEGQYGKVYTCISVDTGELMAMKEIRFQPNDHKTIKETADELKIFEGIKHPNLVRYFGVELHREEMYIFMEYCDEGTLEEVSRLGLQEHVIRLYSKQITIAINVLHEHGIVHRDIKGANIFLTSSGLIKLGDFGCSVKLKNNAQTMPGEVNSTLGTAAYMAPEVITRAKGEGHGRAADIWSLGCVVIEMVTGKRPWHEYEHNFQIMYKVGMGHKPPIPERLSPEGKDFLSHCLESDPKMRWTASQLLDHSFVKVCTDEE

[25] = molecular target: MAP3K6 (human) (UniProt O95382)
[26] = molecular target: MAST1 (human) (UniProt Q9Y2H9)
[27] = molecular target: MATK (human) (UniProt P42679)
Chain of MATK (human) (P42679 whole entry, looked up): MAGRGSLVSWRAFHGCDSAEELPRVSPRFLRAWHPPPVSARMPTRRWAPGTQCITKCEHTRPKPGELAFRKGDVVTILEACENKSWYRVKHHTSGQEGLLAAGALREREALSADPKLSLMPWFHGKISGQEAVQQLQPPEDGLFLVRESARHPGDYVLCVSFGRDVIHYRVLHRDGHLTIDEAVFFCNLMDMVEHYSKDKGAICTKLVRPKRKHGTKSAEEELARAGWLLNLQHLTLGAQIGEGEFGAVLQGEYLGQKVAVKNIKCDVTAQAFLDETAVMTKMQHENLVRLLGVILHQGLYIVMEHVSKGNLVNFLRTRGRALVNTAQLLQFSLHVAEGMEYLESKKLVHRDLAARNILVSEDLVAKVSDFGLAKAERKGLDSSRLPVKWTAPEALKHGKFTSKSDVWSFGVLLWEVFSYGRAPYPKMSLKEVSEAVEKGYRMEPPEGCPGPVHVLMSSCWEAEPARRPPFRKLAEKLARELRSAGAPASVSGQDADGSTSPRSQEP

[28] = molecular target: NEK3 (human) (UniProt P51956)
[29] = molecular target: NIM1 (human) (UniProt Q8IY84)
[30] = molecular target: PAK2 (human) (UniProt Q13177)
[31] = molecular target: PHKG2 (human) (UniProt P15735)
[32] = system: PIK3CA (human), P42336 [H1047L]
[33] = molecular target: PRKD1 (human) (UniProt Q15139)
[34] = molecular target: PTK2 (human) (UniProt Q05397)
[35] = molecular target: RIPK4 (human) (UniProt P57078)
[36] = molecular target: STK11 (human) (UniProt Q15831)
[37] = molecular target: STK25 (human) (UniProt O00506)
[38] = molecular target: TAOK2 (human) (UniProt Q9UL54)
[39] = molecular target: TBK1 (human) (UniProt Q9UHD2)
[40] = molecular target: TEC (human) (UniProt P42680)
[41] = molecular target: MET (human) (UniProt P08581)
Chain of MET (human) (P08581 whole entry, looked up): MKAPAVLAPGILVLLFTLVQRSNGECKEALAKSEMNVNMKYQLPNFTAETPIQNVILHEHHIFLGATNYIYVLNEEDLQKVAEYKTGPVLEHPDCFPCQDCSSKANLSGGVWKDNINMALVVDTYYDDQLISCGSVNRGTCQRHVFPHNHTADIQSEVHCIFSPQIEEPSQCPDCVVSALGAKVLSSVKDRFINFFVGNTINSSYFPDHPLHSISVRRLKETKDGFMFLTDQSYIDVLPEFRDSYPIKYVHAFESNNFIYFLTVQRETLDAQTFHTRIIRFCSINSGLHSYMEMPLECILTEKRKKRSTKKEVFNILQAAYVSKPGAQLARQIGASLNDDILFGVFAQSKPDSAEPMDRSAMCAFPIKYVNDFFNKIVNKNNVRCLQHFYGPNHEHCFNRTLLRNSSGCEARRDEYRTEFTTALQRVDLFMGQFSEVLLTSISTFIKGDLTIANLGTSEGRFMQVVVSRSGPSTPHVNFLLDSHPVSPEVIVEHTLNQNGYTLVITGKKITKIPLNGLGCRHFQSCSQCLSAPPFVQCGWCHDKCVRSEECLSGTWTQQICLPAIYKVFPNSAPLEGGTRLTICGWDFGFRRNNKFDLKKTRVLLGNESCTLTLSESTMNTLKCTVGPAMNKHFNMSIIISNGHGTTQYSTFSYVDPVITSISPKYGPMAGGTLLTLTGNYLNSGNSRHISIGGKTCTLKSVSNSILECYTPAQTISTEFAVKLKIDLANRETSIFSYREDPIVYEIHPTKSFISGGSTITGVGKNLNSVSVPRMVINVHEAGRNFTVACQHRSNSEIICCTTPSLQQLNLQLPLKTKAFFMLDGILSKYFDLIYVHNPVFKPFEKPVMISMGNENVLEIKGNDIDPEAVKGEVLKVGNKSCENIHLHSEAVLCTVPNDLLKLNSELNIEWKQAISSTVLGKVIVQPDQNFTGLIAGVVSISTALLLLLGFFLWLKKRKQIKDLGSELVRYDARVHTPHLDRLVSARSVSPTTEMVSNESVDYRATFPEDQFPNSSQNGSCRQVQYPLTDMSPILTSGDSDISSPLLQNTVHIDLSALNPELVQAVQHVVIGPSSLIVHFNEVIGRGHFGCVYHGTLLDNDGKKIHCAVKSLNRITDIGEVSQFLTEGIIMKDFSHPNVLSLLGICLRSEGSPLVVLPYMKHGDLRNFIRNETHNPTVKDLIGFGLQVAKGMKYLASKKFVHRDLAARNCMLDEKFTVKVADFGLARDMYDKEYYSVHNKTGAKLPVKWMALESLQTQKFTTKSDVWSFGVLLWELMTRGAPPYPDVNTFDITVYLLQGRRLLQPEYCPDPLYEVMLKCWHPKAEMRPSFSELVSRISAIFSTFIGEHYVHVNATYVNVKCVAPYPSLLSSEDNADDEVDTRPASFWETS

## COC(=O)Nc1ccc(-c2nc(N3CCOCC3)c3cnn(C4CCN(C(=O)OC)CC4)c3n2)cc1
[1]
  kinase still bound, per cent of control: 100%
[2]
  kinase still bound, per cent of control: 100%
[3]
  kinase still bound, per cent of control: 100%
[4]
  kinase still bound, per cent of control: 99%
[5]
  per cent of control: 100%
[6]
  per cent of control: 100%
[7]
  per cent of control: 100%
[8]
  kinase still bound, per cent of control: 100%
[9]
  kinase still bound, per cent of control: 57%
[10]
  kinase still bound, per cent of control: 94%
[11]
  kinase still bound, per cent of control: 100%
[12]
  per cent of control: 100%
[13]
  kinase still bound, per cent of control: 96%
[14]
  kinase still bound, per cent of control: 92%
[15]
  kinase still bound, per cent of control: 95%
[16]
  kinase still bound, per cent of control: 100%
[17]
  kinase still bound, per cent of control: 100%
[18]
  kinase still bound, per cent of control: 97%
[19]
  kinase still bound, per cent of control: 100%
[20]
  kinase still bound, per cent of control: 100%
[21]
  kinase still bound, per cent of control: 100%
[22]
  kinase still bound, per cent of control: 80%
[23]
  kinase still bound, per cent of control: 95%
[24]
  kinase still bound, per cent of control: 100%
[25]
  kinase still bound, per cent of control: 95%
[26]
  kinase still bound, per cent of control: 81%
[27]
  kinase still bound, per cent of control: 100%
[28]
  kinase still bound, per cent of control: 100%
[29]
  kinase still bound, per cent of control: 100%
[30]
  kinase still bound, per cent of control: 91%
[31]
  kinase still bound, per cent of control: 86%
[32]
  kinase still bound, per cent of control: 12%
[33]
  kinase still bound, per cent of control: 95%
[34]
  kinase still bound, per cent of control: 94%
[35]
  kinase still bound, per cent of control: 90%
[36]
  kinase still bound, per cent of control: 100%
[37]
  kinase still bound, per cent of control: 78%
[38]
  kinase still bound, per cent of control: 73%
[39]
  kinase still bound, per cent of control: 99%
[40]
  kinase still bound, per cent of control: 96%

## CC(C)n1nc(-c2cc3cc(O)ccc3[nH]2)c2c(N)ncnc21
[2]
  kinase still bound, per cent of control: 11%
[3]
  kinase still bound, per cent of control: 68%
[4]
  kinase still bound, per cent of control: 33%
[5]
  per cent of control: 100%
[6]
  per cent of control: 100%
[7]
  per cent of control: 100%
[8]
  kinase still bound, per cent of control: 14%
[9]
  kinase still bound, per cent of control: 9.7%
[10]
  kinase still bound, per cent of control: 9.7%
[11]
  kinase still bound, per cent of control: 3.6%
[12]
  per cent of control: 2.4%
[13]
  kinase still bound, per cent of control: 3.8%
[14]
  kinase still bound, per cent of control: 2.8%
[15]
  kinase still bound, per cent of control: 100%
[16]
  kinase still bound, per cent of control: 0.55%
[18]
  kinase still bound, per cent of control: 1.2%
[19]
  kinase still bound, per cent of control: 83%
[20]
  kinase still bound, per cent of control: 2.5%
[21]
  kinase still bound, per cent of control: 11%
[22]
  kinase still bound, per cent of control: 2.6%
[23]
  kinase still bound, per cent of control: 1.7%
[24]
  kinase still bound, per cent of control: 85%
[25]
  kinase still bound, per cent of control: 85%
[26]
  kinase still bound, per cent of control: 87%
[27]
  kinase still bound, per cent of control: 60%
[41]
  kinase still bound, per cent of control: 73%
[28]
  kinase still bound, per cent of control: 55%
[29]
  kinase still bound, per cent of control: 88%
[30]
  kinase still bound, per cent of control: 31%
[31]
  kinase still bound, per cent of control: 12%
[33]
  kinase still bound, per cent of control: 100%
[34]
  kinase still bound, per cent of control: 100%
[35]
  kinase still bound, per cent of control: 6.3%
[36]
  kinase still bound, per cent of control: 79%
[37]
  kinase still bound, per cent of control: 53%
[38]
  kinase still bound, per cent of control: 1.2%
[39]
  kinase still bound, per cent of control: 84%
[40]
  kinase still bound, per cent of control: 100%

## CCC(=O)N1CCN(c2ccc(-n3c(=O)ccc4cnc5ccc(-c6cnc7ccccc7c6)cc5c43)cc2C(F)(F)F)CC1
[1]
  kinase still bound, per cent of control: 100%
[2]
  kinase still bound, per cent of control: 45%
[3]
  kinase still bound, per cent of control: 91%
[4]
  kinase still bound, per cent of control: 100%
[5]
  per cent of control: 97%
[6]
  per cent of control: 97%
[7]
  per cent of control: 100%
[8]
  kinase still bound, per cent of control: 49%
[9]
  kinase still bound, per cent of control: 65%
[10]
  kinase still bound, per cent of control: 49%
[12]
  per cent of control: 4.3%
[14]
  kinase still bound, per cent of control: 82%
[15]
  kinase still bound, per cent of control: 100%
[16]
  kinase still bound, per cent of control: 77%
[17]
  kinase still bound, per cent of control: 80%
[18]
  kinase still bound, per cent of control: 71%
[19]
  kinase still bound, per cent of control: 90%
[20]
  kinase still bound, per cent of control: 77%
[21]
  kinase still bound, per cent of control: 82%
[22]
  kinase still bound, per cent of control: 99%
[23]
  kinase still bound, per cent of control: 80%
[24]
  kinase still bound, per cent of control: 47%
[25]
  kinase still bound, per cent of control: 100%
[26]
  kinase still bound, per cent of control: 93%
[27]
  kinase still bound, per cent of control: 97%
[41]
  kinase still bound, per cent of control: 84%
[28]
  kinase still bound, per cent of control: 100%
[29]
  kinase still bound, per cent of control: 84%
[30]
  kinase still bound, per cent of control: 100%
[31]
  kinase still bound, per cent of control: 100%
[32]
  kinase still bound, per cent of control: 2.6%
[33]
  kinase still bound, per cent of control: 99%
[34]
  kinase still bound, per cent of control: 14%
[35]
  kinase still bound, per cent of control: 100%
[36]
  kinase still bound, per cent of control: 100%
[37]
  kinase still bound, per cent of control: 84%
[38]
  kinase still bound, per cent of control: 84%
[39]
  kinase still bound, per cent of control: 93%
[40]
  kinase still bound, per cent of control: 99%

## COc1ccc(-c2ccc3c(N4CCOCC4)nc(N4C[C@@H](C)O[C@@H](C)C4)nc3n2)cc1CO
[1]
  kinase still bound, per cent of control: 100%
[2]
  kinase still bound, per cent of control: 91%
[3]
  kinase still bound, per cent of control: 100%
[4]
  kinase still bound, per cent of control: 98%
[5]
  per cent of control: 100%
[6]
  per cent of control: 100%
[7]
  per cent of control: 100%
[8]
  kinase still bound, per cent of control: 52%
[9]
  kinase still bound, per cent of control: 64%
[10]
  kinase still bound, per cent of control: 62%
[11]
  kinase still bound, per cent of control: 100%
[12]
  per cent of control: 79%
[13]
  kinase still bound, per cent of control: 80%
[14]
  kinase still bound, per cent of control: 89%
[15]
  kinase still bound, per cent of control: 100%
[16]
  kinase still bound, per cent of control: 86%
[17]
  kinase still bound, per cent of control: 82%
[18]
  kinase still bound, per cent of control: 80%
[19]
  kinase still bound, per cent of control: 67%
[20]
  kinase still bound, per cent of control: 100%
[21]
  kinase still bound, per cent of control: 84%
[22]
  kinase still bound, per cent of control: 100%
[23]
  kinase still bound, per cent of control: 94%
[24]
  kinase still bound, per cent of control: 100%
[25]
  kinase still bound, per cent of control: 91%
[26]
  kinase still bound, per cent of control: 100%
[27]
  kinase still bound, per cent of control: 78%
[41]
  kinase still bound, per cent of control: 88%
[28]
  kinase still bound, per cent of control: 61%
[29]
  kinase still bound, per cent of control: 97%
[30]
  kinase still bound, per cent of control: 91%
[31]
  kinase still bound, per cent of control: 77%
[32]
  kinase still bound, per cent of control: 26%
[33]
  kinase still bound, per cent of control: 91%
[34]
  kinase still bound, per cent of control: 95%
[35]
  kinase still bound, per cent of control: 71%
[36]
  kinase still bound, per cent of control: 95%
[37]
  kinase still bound, per cent of control: 100%
[38]
  kinase still bound, per cent of control: 76%
[39]
  kinase still bound, per cent of control: 100%
[40]
  kinase still bound, per cent of control: 92%
